Reference: patent publication US10670605B2, “Cysteine reactive probes and uses thereof” (The Scripps Research Institute, priority 2015, dated 2020)

Tests used:
Assay in all cases: Competitive isoTOP-ABPP in situ (fragment-treated cells)
Assay type in all cases: cell-based
[1] = target: cysteines in MDA-MB-231 and Ramos cells (Homo sapiens, UniProt Q13526)
[2] = target: cysteines in MDA-MB-231 and Ramos cells (Homo sapiens, UniProt Q9Y696)
[3] = target: T1, cysteines in MDA-MB-231 and Ramos cells (Homo sapiens, UniProt P78417); details: 200 μM, insitu
T1 sequence (P78417 1-241): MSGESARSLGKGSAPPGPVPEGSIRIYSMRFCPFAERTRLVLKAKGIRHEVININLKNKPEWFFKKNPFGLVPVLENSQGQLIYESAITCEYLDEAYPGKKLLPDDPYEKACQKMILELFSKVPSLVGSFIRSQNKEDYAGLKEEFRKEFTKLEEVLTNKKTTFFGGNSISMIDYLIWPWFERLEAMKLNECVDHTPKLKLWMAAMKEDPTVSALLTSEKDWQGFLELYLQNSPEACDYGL

[4] = target: T2, cysteines in MDA-MB-231 and Ramos cells (Homo sapiens, UniProt Q13155)
T2 sequence (Q13155 1-320): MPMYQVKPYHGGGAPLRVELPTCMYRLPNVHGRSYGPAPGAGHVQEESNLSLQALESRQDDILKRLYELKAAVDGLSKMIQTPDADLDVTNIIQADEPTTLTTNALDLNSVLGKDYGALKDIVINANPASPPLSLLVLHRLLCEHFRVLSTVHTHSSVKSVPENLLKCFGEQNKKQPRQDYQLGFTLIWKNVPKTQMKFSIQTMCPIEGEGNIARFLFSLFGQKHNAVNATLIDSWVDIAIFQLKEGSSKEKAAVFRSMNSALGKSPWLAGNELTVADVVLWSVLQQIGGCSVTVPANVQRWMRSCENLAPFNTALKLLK

[5] = target: cysteines in MDA-MB-231 and Ramos cells (Homo sapiens, UniProt Q14997); details: 200 μM, insitu
Chain of cysteines in MDA-MB-231 and Ramos cells (Homo sapiens, UniProt Q14997) (Q14997 whole entry): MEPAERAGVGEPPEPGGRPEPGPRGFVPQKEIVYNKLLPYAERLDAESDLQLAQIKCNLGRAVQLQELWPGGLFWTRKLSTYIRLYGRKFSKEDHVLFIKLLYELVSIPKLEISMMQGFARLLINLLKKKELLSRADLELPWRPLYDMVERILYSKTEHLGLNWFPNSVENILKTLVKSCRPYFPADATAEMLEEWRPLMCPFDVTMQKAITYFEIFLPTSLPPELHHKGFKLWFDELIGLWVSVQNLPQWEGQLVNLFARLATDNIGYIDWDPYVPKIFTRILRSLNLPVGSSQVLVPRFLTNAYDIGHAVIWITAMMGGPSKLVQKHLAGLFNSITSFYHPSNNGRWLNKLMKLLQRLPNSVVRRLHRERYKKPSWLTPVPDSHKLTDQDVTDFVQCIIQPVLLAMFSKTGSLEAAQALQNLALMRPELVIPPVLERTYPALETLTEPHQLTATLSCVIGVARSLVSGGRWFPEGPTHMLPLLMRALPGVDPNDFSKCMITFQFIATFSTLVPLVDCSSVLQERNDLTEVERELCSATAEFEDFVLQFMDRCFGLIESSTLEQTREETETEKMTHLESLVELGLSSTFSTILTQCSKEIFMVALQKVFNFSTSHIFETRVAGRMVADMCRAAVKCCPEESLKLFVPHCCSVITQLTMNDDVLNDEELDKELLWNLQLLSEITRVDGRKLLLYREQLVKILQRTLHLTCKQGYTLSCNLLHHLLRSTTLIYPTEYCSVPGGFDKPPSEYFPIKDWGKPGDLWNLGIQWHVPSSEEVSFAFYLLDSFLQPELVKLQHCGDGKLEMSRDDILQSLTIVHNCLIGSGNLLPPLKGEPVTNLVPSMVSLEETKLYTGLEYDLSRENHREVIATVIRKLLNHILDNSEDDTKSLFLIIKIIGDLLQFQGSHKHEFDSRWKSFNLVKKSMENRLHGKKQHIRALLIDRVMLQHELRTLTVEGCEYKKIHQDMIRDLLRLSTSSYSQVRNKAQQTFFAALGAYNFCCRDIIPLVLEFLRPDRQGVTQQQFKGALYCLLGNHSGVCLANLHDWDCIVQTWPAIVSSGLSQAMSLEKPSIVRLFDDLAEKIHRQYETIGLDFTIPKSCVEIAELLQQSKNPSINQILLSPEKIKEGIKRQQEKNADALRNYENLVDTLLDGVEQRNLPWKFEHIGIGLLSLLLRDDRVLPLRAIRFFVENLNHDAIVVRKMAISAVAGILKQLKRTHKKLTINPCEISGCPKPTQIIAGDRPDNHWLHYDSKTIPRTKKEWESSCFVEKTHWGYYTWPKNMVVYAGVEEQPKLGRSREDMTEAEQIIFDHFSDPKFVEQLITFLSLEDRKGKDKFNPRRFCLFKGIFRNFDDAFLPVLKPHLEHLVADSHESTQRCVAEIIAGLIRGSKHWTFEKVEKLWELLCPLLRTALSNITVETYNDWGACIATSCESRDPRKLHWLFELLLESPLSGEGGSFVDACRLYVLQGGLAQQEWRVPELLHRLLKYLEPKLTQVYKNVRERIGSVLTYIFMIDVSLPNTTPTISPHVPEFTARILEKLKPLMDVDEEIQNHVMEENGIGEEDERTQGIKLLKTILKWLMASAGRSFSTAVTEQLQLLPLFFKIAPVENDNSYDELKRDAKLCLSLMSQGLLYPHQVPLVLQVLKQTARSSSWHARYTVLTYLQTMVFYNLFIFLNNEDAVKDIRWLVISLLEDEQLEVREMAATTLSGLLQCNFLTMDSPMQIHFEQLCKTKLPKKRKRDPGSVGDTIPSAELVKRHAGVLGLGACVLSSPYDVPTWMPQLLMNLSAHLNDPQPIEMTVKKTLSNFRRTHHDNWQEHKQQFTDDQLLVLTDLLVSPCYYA

[6] = target: T3, cysteines in MDA-MB-231 and Ramos cells (Homo sapiens, UniProt Q5T0N5)
T3 sequence (Q5T0N5 1-605): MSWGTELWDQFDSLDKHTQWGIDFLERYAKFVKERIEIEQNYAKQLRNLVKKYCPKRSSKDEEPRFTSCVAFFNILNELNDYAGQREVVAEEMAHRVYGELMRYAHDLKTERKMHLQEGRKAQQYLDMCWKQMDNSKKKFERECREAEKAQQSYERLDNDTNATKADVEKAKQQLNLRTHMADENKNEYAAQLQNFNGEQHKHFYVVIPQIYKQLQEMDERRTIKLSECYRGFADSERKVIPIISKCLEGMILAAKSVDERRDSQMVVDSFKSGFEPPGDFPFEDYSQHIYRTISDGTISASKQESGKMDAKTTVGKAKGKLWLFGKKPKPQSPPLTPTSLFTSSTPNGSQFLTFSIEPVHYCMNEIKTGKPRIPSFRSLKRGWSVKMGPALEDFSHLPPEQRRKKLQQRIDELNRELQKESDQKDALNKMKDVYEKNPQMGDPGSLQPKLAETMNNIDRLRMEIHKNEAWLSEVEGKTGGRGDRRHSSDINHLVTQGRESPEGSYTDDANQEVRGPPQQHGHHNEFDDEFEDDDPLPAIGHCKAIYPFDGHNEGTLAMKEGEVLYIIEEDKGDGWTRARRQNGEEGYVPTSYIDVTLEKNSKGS

[7] = target: T4, cysteines in MDA-MB-231 and Ramos cells (Homo sapiens, UniProt Q9BRA2)
T4 sequence (Q9BRA2 1-123): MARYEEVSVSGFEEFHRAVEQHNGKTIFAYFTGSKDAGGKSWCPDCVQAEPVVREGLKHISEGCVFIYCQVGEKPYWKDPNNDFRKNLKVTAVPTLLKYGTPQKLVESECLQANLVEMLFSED

[8] = target: T5, cysteines in MDA-MB-231 and Ramos cells (Homo sapiens, UniProt Q99757)
T5 sequence (Q99757 60-166): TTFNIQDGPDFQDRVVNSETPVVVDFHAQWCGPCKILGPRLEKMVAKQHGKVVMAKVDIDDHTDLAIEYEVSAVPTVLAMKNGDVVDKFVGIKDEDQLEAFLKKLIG

[9] = target: cysteines in MDA-MB-231 and Ramos cells (Homo sapiens, UniProt P83731)
[10] = target: cysteines in MDA-MB-231 and Ramos cells (Homo sapiens, UniProt O60610)
Chain of cysteines in MDA-MB-231 and Ramos cells (Homo sapiens, UniProt O60610) (O60610 whole entry): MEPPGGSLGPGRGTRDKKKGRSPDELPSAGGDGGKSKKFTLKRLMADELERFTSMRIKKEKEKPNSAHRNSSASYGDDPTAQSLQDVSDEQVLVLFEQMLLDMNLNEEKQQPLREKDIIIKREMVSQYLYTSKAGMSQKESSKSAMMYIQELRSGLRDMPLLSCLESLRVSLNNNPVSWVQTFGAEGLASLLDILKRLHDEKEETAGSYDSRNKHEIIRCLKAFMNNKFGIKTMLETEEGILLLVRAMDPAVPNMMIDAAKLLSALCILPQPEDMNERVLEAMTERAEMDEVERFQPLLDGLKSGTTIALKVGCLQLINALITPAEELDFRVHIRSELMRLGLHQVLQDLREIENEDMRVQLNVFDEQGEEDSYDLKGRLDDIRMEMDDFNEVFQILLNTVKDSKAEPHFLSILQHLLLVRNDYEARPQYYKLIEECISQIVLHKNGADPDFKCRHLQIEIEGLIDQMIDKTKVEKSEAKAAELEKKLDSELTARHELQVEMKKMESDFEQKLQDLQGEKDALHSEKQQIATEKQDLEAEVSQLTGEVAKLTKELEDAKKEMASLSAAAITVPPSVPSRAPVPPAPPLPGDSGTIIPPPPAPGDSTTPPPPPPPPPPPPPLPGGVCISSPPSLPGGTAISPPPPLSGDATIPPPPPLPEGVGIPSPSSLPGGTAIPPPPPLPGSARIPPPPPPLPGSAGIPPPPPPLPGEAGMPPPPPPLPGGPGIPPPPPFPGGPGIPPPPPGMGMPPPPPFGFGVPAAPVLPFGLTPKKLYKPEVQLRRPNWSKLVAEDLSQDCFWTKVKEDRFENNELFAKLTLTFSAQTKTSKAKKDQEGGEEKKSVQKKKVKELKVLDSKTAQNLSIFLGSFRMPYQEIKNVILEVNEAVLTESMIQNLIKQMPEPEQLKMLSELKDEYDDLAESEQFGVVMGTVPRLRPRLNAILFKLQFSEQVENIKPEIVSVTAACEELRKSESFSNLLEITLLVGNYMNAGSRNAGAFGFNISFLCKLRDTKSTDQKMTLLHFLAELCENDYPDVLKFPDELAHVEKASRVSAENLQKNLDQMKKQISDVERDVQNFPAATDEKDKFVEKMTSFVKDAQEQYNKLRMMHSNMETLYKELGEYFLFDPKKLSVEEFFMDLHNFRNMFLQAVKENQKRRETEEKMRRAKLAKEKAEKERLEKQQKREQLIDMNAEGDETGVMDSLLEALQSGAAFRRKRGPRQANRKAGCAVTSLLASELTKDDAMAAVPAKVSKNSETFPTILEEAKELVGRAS

[11] = target: T6, cysteines in MDA-MB-231 and Ramos cells (Homo sapiens, UniProt Q9Y277)
T6 sequence (Q9Y277 1-283): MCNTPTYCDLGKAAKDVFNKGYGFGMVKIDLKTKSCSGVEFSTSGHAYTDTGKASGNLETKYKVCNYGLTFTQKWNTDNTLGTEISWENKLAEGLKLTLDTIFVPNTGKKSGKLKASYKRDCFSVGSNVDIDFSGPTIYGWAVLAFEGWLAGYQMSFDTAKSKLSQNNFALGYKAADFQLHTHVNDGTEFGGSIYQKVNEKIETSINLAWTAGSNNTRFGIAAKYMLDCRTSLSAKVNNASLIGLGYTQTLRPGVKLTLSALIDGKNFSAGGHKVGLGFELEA

Chain of cysteines in MDA-MB-231 and Ramos cells (Homo sapiens, UniProt Q9Y696) (Q9Y696 whole entry): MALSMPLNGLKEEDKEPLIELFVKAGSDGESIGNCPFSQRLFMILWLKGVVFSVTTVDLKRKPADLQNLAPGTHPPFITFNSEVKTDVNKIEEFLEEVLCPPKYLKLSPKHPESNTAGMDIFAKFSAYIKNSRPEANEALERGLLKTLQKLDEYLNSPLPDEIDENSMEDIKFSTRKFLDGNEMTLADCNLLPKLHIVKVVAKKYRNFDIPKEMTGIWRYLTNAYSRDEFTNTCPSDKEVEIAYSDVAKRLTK
Chain of cysteines in MDA-MB-231 and Ramos cells (Homo sapiens, UniProt Q13526) (Q13526 whole entry): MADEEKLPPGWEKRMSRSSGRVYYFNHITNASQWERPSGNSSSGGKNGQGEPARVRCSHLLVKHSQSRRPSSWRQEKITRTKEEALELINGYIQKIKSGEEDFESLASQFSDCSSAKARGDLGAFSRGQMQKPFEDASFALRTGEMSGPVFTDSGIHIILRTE

COc1cc2c(cc1OC)CN(C(=O)CCl)CC2 [compound 8]
isoTOP-ABPP reactivity Q13526_C113 PIN1 ([1]; 200 μM, insitu, 231): 2.6
isoTOP-ABPP reactivity Q9Y696_C35 CLIC4 ([2]; 200 μM, insitu, 231): 4.7
isoTOP-ABPP reactivity P78417_C32 GSTO1 [3]; 231: 20.0
isoTOP-ABPP reactivity Q13155_C23 AIMP2 ([4]; 200 μM, insitu, 231): 2.7
isoTOP-ABPP reactivity Q13155_C291 AIMP2 ([4]; 200 μM, insitu, 231): 2.4
isoTOP-ABPP reactivity Q14997_C1840 PSME4 [5]; 231: 20.0
isoTOP-ABPP reactivity Q5T0N5_C69 FNBP1L ([6]; 200 μM, insitu, 231): 3.6
isoTOP-ABPP reactivity Q9BRA2_C43 TXNDC17 ([7]; 200 μM, insitu, 231): 20.0
isoTOP-ABPP reactivity Q99757_C90 TXN2 ([8]; 200 μM, insitu, 231): 4.5

O=C(CCl)N1CCC(Cc2ccccc2)CC1 [compound 9]
isoTOP-ABPP reactivity Q13526_C113 PIN1 ([1]; 200 μM, insitu, 231): 3.3
isoTOP-ABPP reactivity P83731_C6 RPL24 ([9]; 200 μM, insitu, 231): 4.3
isoTOP-ABPP reactivity Q9Y696_C35 CLIC4 ([2]; 200 μM, insitu, 231): 2.6
isoTOP-ABPP reactivity O60610_C1227 DIAPH1 ([10]; 200 μM, insitu, 231): 1.5
isoTOP-ABPP reactivity Q13155_C291 AIMP2 ([4]; 200 μM, insitu, 231): 1.9
isoTOP-ABPP reactivity Q9BRA2_C43 TXNDC17 ([7]; 200 μM, insitu, 231): 20.0
isoTOP-ABPP reactivity Q99757_C90 TXN2 ([8]; 200 μM, insitu, 231): 20.0

Cn1cc(S(=O)(=O)N2CCOCC2)cc1C(=O)NC(=O)CCl [compound 11]
isoTOP-ABPP ratio Q13526_C113 ([1]; 100 μM in situ 231): 0.7
isoTOP-ABPP ratio P83731_C6 ([9]; 100 μM in situ 231): 0.5
isoTOP-ABPP ratio Q9Y696_C35 ([2]; 100 μM in situ 231): 1.9
isoTOP-ABPP ratio O60610_C1227 ([10]; 100 μM in situ 231): 0.9
isoTOP-ABPP ratio Q13155_C23 ([4]; 100 μM in situ 231): 1.2
isoTOP-ABPP ratio Q13155_C291 ([4]; 100 μM in situ 231): 0.9
isoTOP-ABPP ratio Q9Y277_C65 ([11]; 100 μM in situ 231): 1.4
isoTOP-ABPP ratio Q5T0N5_C69 ([6]; 100 μM in situ 231): 1.3
isoTOP-ABPP ratio Q9BRA2_C43 ([7]; 100 μM in situ 231): 17.7
isoTOP-ABPP ratio Q99757_C90 ([8]; 100 μM in situ 231): 2.7

COc1ccccc1OCCNC(=O)CCl [compound 28]
isoTOP-ABPP ratio Q13526_C113 ([1]; 200 μM, insitu, 231): 0.7
isoTOP-ABPP ratio Q9Y696_C35 ([2]; 200 μM, insitu, 231): 2.7
isoTOP-ABPP ratio P78417_C32 [3]; 231: 20.0
isoTOP-ABPP ratio Q13155_C291 ([4]; 200 μM, insitu, 231): 0.9
isoTOP-ABPP ratio Q14997_C1840 [5]; 231: 0.9
isoTOP-ABPP ratio Q9Y277_C65 ([11]; 200 μM, insitu, 231): 1.2

O=C(CCl)N1CCN(CC(=O)N2CCOCC2)CC1 [compound 29]
isoTOP-ABPP ratio Q13526_C113 ([1]; 200 μM, insitu, ramos): 1.0
isoTOP-ABPP ratio P83731_C6 ([9]; 200 μM, insitu, ramos): 1.6
isoTOP-ABPP ratio Q9Y696_C35 ([2]; 200 μM, insitu, ramos): 1.0
isoTOP-ABPP ratio P78417_C32 ([3]; ramos): 20.0
isoTOP-ABPP ratio O60610_C1227 ([10]; 200 μM, insitu, ramos): 1.6
isoTOP-ABPP ratio Q13155_C23 ([4]; 200 μM, insitu, ramos): 1.6
isoTOP-ABPP ratio Q9BRA2_C43 ([7]; 200 μM, insitu, ramos): 2.3
isoTOP-ABPP ratio Q99757_C90 ([8]; 200 μM, insitu, ramos): 1.6

C=CC(=O)N(Cc1cccnc1)c1cc(C(F)(F)F)cc(C(F)(F)F)c1 [compound 31]
isoTOP-ABPP ratio Q13526_C113 ([1]; 200 μM, insitu, 231): 0.6
isoTOP-ABPP ratio Q13526_C113 ([1]; 200 μM, insitu, ramos): 1.1
isoTOP-ABPP ratio Q9Y696_C35 ([2]; 200 μM, insitu, 231): 0.6
isoTOP-ABPP ratio P78417_C32 [3]; 231: 0.8
isoTOP-ABPP ratio P78417_C32 ([3]; ramos): 2.6
isoTOP-ABPP ratio O60610_C1227 ([10]; 200 μM, insitu, 231): 0.6
isoTOP-ABPP ratio O60610_C1227 ([10]; 200 μM, insitu, ramos): 1.2
isoTOP-ABPP ratio Q13155_C291 ([4]; 200 μM, insitu, 231): 0.8
isoTOP-ABPP ratio Q14997_C1840 ([5]; ramos): 1.2
isoTOP-ABPP ratio Q9Y277_C65 ([11]; 200 μM, insitu, ramos): 1.0
isoTOP-ABPP ratio Q9BRA2_C43 ([7]; 200 μM, insitu, 231): 0.6
isoTOP-ABPP ratio Q99757_C90 ([8]; 200 μM, insitu, 231): 1.4

CC1CCc2ccccc2N1C(=O)CCl (stereo not drawn) [compound 45]
isoTOP-ABPP ratio Q13526_C113 ([1]; 200 μM, insitu, 231): 10.0
isoTOP-ABPP ratio P83731_C6 ([9]; 200 μM, insitu, 231): 1.2
isoTOP-ABPP ratio Q9Y696_C35 ([2]; 200 μM, insitu, 231): 1.4
isoTOP-ABPP ratio P78417_C32 [3]; 231: 1.9
isoTOP-ABPP ratio O60610_C1227 ([10]; 200 μM, insitu, 231): 3.0
isoTOP-ABPP ratio Q13155_C23 ([4]; 200 μM, insitu, 231): 4.4
isoTOP-ABPP ratio Q13155_C291 ([4]; 200 μM, insitu, 231): 7.3
isoTOP-ABPP ratio Q5T0N5_C69 ([6]; 200 μM, insitu, 231): 5.4
isoTOP-ABPP ratio Q9BRA2_C43 ([7]; 200 μM, insitu, 231): 8.0
isoTOP-ABPP ratio Q99757_C90 ([8]; 200 μM, insitu, 231): 6.7

O=C(CCl)Nc1cccc2ncccc12 [compound 51]
isoTOP-ABPP ratio Q13526_C113 ([1]; 200 μM, insitu, 231): 1.4
isoTOP-ABPP ratio Q9Y696_C35 ([2]; 200 μM, insitu, 231): 2.6
isoTOP-ABPP ratio Q13155_C23 ([4]; 200 μM, insitu, 231): 1.2
isoTOP-ABPP ratio Q13155_C291 ([4]; 200 μM, insitu, 231): 1.1
isoTOP-ABPP ratio Q14997_C1840 [5]; 231: 20.0
isoTOP-ABPP ratio Q5T0N5_C69 ([6]; 200 μM, insitu, 231): 1.7
isoTOP-ABPP ratio Q99757_C90 ([8]; 200 μM, insitu, 231): 5.0
